Columns and labels:
[1] = tested on: AsPC-1 (pancreatic cancer cell line bearing the KRAS^G12D mutation) xenograft; test: AsPC-1 xenograft tumor mouse model efficacy; type: in vivo, Balb/c nude mice; details: 16 days
[2] = Caco-2 permeability assay; type: in vitro ADME; details: human, Table 1
[3] = Blood, tumor and tissue concentration after last dose in the tumor model; type: in vivo, Balb/c nude mice; details: for concentration at 2 h / concentration at 8 h: female, Balb/c nude (Nu/Nu), mouse, ip; for concentration at 2 h / concentration at 8 h / concentration of MRTX1133 in kidney: 10 mg/kg; for concentration of MRTX1133 in heart / concentration of MRTX1133 in intestine / concentration of MRTX1133 in liver / concentration of MRTX1133 in lung / concentration of MRTX1133 in spleen / concentration of MRTX1133 in stomach / concentration of MRTX1133 in tumor / concentration of MRTX1133 in kidney: from MRTX1133 IP 10 mpk
Pharmacokinetics in mice = type: in vivo; details: intravenous, 3 mpk
[4] = Stability in mouse liver microsomes; type: in vitro ADME; details: pH 7.4
[5] = Tolerability and body weight in mice; type: in vivo; details: oral, 300 mpk
[6] = following IP administration of MRTX1133 (10 mpk), time not given

C#Cc1c(F)ccc2cc(O)cc(-c3ncc4c(N5CC6CCC(C5)N6)nc(OC[C@@]56CCCN5C[C@H](F)C6)nc4c3F)c12 [MRTX1133]
antitumor effect ([1]; 100 mpk p.o. bid): no apparent antitumor effect
Papp A→B ([2]; Caco-2, Caco-2 permeability Papp A – B): < 0.48 ×10⁻⁶ cm/s
Papp B→A ([2]; Caco-2, Caco-2 permeability Papp B – A): 8.05 ×10⁻⁶ cm/s
efflux ratio ([2]; Caco-2, Caco-2 permeability efflux ratio): > 16.8
concentration at 2 h ([3]; brain): 131 ng/g
concentration at 8 h ([3]; brain): 139 ng/g
concentration at 2 h ([3]; whole blood): 654 ng/mL
concentration at 8 h ([3]; whole blood): 330 ng/mL
concentration of MRTX1133 in the liver, spleen, and lung [3, 6]: ~60 000 ng/g
concentration of MRTX1133 in the stomach, intestine, and heart [3, 6]: ~20 000 ng/g
concentration of MRTX1133 in heart ([3]; 2 h post last dose): 18 330 ng/g
concentration of MRTX1133 in intestine ([3]; 2 h post last dose): 24 388 ng/g
concentration of MRTX1133 in liver ([3]; 2 h post last dose): 63 525 ng/g
concentration of MRTX1133 in lung ([3]; 2 h post last dose): 53 040 ng/g
concentration of MRTX1133 in spleen ([3]; 2 h post last dose): 58400 ng/g
concentration of MRTX1133 in stomach ([3]; 2 h post last dose): 26 325 ng/g
concentration of MRTX1133 in tumor ([3]; 2 h post last dose): 11 870 ng/g
concentration of MRTX1133 in kidney ([3]; 2 h post last dose): 285 150 ng/g
concentration of MRTX1133 in heart ([3]; 8 h post last dose): 15 795 ng/g
concentration of MRTX1133 in intestine ([3]; 8 h post last dose): 18 213 ng/g
concentration of MRTX1133 in liver ([3]; 8 h post last dose): 62 950 ng/g
concentration of MRTX1133 in lung ([3]; 8 h post last dose): 57 300 ng/g
concentration of MRTX1133 in spleen ([3]; 8 h post last dose): 54000 ng/g
concentration of MRTX1133 in stomach ([3]; 8 h post last dose): 27 775 ng/g
concentration of MRTX1133 in tumor ([3]; 8 h post last dose): 14 300 ng/g
concentration of MRTX1133 in kidney ([3]; 8 h post last dose): 333 900 ng/g
AUC0–24 h of MRTX1133 (Pharmacokinetics in mice): 2253 ng·h/mL
CLint scaled at 1 μM [4]: 143 mL/min/kg
half-life at 1 μM [4]: 38.5 min

C#Cc1c(F)ccc2cc(O)cc(-c3ncc4c(N5C[C@H]6CC[C@@H](C5)N6C(=O)OC(C)OC(=O)CCC)nc(OC[C@@]56CCCN5C[C@H](F)C6)nc4c3F)c12 (stereo partly drawn) [Compound 9, 1-(Butyryloxy)ethyl (1R,5S)-3-(7-(8-ethynyl-7-fluoro-3-hydroxynaphthalen-1-yl)-8-fluoro-2-(((2R,7aS)-2-fluorotetrahydro-1H-pyrrolizin-7a(5H)-yl)methoxy)pyrido[4,3-d]pyrimidin-4-yl)-3,8-diazabicyclo[3.2.1]octane-8-carboxylate]
tolerability in mice ([5]; conventional vehicle): intolerable
tolerability in mice ([5]; lipid-based formulation): well-tolerated
tumor growth inhibition (TGI) ([1]; high dose 126 mpk (equimolar to 100 mpk MRTX1133) p.o. bid): 54%
tumor growth inhibition (TGI) ([1]; low dose 37.8 mpk (equimolar to 30 mpk MRTX1133) p.o. bid): 20%
blood concentration of the named Cpd ([3]; 8 h post last oral dose of prodrug 9 (high dose, 126 mpk bid) in the tumor model): BLQ
